Our source for the viability values is paper PMC12040169 (PLOS Biology, 2025).

The nature of the first data set: in vitro. The note with it: human, hela cells.
For `CN(C)C(=O)Oc1cc(CN2CCCC2)c2ccn(S(=O)(=O)c3ccccc3)c2c1` [CBK137151T], the viability (commonly a read-out of living cells in per cent, often relative to untreated cells) at 28.5 h, 10 µM is 101%.

Still in this data set, the particulars now being: human, hela cells, % viability.
Consider `O=C(c1ccoc1)N1CCC2(CCCN(Cc3cc(=O)[nH]c(=O)[nH]3)C2)C1` (centres unmarked) [CBK132823], for which the viability at 28.5 h, 10 µM came to 97.8%.
Same read-out and setting: the figure for `CSCCN1CCCC2(CCN(C(=O)c3ccoc3)C2)C1` (centres unmarked) [CBK132835] is 88.7%.
The same measure, in the same setting: the figure for `COc1ccc(C(=O)N2CCC3(CCCN(CCCn4c(=O)[nH]c5ccccc54)C3)C2)cc1OC` (centres unmarked) [CBK132856] is 93.1%.
The same measure, in the same setting: in the case of `COc1ccc(C(=O)N2CCC3(CCCN(CCN4C(=O)c5ccccc5C4=O)C3)C2)cc1OC` (centres unmarked) [CBK132862] it was 98.1%; in that of `CCc1cc(NC[C@@H](O)CO)nc(-c2cc(F)c(F)c(F)c2)n1` [CBK132879], 94.2%; in that of `CCc1cc(NC[C@@H](O)CO)nc(-c2ccc(F)c(Cl)c2)n1` [CBK132880], 74.4%.
With `Cn1c(=O)c2c(ncn2CC(=O)Nc2ccc(Cl)cc2Cl)n(C)c1=O` [CBK133227], the viability at 28.5 h, 10 µM stood at 86%.
On the same count and under the same terms, the figure for `CC(C)NC(=O)Cn1cnc2c1c(=O)n(C)c(=O)n2C` [CBK133257] is 86.9%; for `Cc1ccc(NC(=O)Cn2cnc3c2c(=O)n(C)c(=O)n3C)c(C)c1` [CBK133276] it is 90.6%; for `Cn1c(=O)c2c(ncn2Cc2ccccc2)n(C)c1=O` [CBK133402] it is 102%.
With `Cc1ccc(NC(=O)Cn2cnc3c2c(=O)n(C)c(=O)n3C)nc1` [CBK133463], the viability at 28.5 h, 10 µM was 95.9%.
The same measure, in the same setting: the figure for `Cn1c(=O)c2c(ncn2CC(=O)Nc2ccccc2C#N)n(C)c1=O` [CBK133465] is 89.6%.
Still for that read-out and setting: in the case of `Cn1c(=O)c2c(ncn2CC(=O)Nc2cccc3ccccc23)n(C)c1=O` [CBK133515] it was 95.8%; in that of `COc1ccc(NC(=O)Cn2cnc3c2c(=O)n(C)c(=O)n3C)cc1Cl` [CBK134216], 95.9%.
As for `Cn1c(=O)c2c(ncn2Cc2ccc(C#N)cc2)n(C)c1=O` [CBK134217], the viability at 28.5 h, 10 µM amounted to 106%.
Same read-out and setting: the figure for `Cc1ccc(Cn2c(OCCN(C)C)nc3c2c(=O)n(C)c(=O)n3C)cc1` [CBK134241] is 89.3%; for `COc1ccc(CCNc2ncnc3[nH]cnc23)cc1OC` [CBK134342] it is 110%; for `CCc1ccc2[nH]c(=O)c(CN(CCN(C)C)C(=S)NCc3ccccc3)cc2c1` [CBK134905] it is 98.4%.
Same read-out and setting: the figure for `Cc1cccc(N=C(S)N(CCN(C)C)Cc2cc3cc(C)cc(C)c3nc2O)c1` [CBK135105] is 96.2%; for `CC(C)(N)C(=O)N1CC(C(=O)N2CC3(CCN(S(C)(=O)=O)CC3)c3ccccc32)C(c2cc3ccccc3o2)C1` (centres unmarked) [CBK136734T] it is 117%.
Same read-out and setting: in the case of `O=C(Cc1ccsc1)N1CCC2(CCN(Cc3ccccc3)CC2)C1` [CBK136742] it was 89.8%.
On to `CSCCC(=O)N1CCC2(CCN(Cc3ccccc3)CC2)C1` [CBK136757], for which the viability at 28.5 h, 10 µM stood at 101%.
As for `O=C(c1cncnc1)N1CCC2(CCN(Cc3ccccc3)CC2)C1` [CBK136782], the viability at 28.5 h, 10 µM stood at 101%.
Same read-out and setting: in the case of `Cc1cc(CC(=O)N2CCC(Cn3cncn3)(C3CCCCC3)CC2)on1` [CBK136795] it was 88.8%; in that of `O=C(Cc1nnn[nH]1)N1CCC(Cn2cncn2)(C2CCCCC2)CC1` [CBK136796], 92.2%.
Still for that read-out and setting: the figure for `COc1ccccc1OCC(=O)N1CCC(Cn2cncn2)(C2CCCCC2)CC1` [CBK136797] is 91.9%; for `O=C1NC(=O)C(CC(=O)N2CCC(Cn3cncn3)(C3CCCCC3)CC2)N1` (centres unmarked) [CBK136808] it is 94.3%; for `O=C(O)CCC(=O)N1CCC(Cn2cncn2)(C2CCCCC2)CC1` [CBK136809] it is 94.8%.
The same measure, in the same setting: the figure for `COC(=O)CCC(=O)N1CCC(Cn2cncn2)(C2CCCCC2)CC1` [CBK136810] is 90.8%; for `O=C(CC1CC1)N1CCC2(CCN(Cc3ccccc3)C2)C1` (centres unmarked) [CBK136825] it is 93.9%; for `CSCCC(=O)N1CCC2(CCN(Cc3ccccc3)C2)C1` (centres unmarked) [CBK136838] it is 93.8%.
`Cc1cn(CC(=O)N2CCC3(CCN(Cc4ccccc4)C3)C2)c(=O)[nH]c1=O` (centres unmarked) [CBK136840]: the viability at 28.5 h, 10 µM turned out to be 91.6%.
The same measure, in the same setting: the figure for `COC(=O)CCC(=O)N1CCC2(CCN(Cc3ccccc3)C2)C1` (centres unmarked) [CBK136852] is 116%; for `O=C(c1ccc2nc[nH]c2c1)N1CCC2(CCN(Cc3ccccc3)C2)C1` (centres unmarked) [CBK136862] it is 94.1%; for `O=C(Cc1ccsc1)N1CCCC2(CCN(Cc3ccccc3)C2)C1` (centres unmarked) [CBK136868] it is 86.7%.
In the case of `O=C(Cc1ccc(Cl)c(Cl)c1)N1CCCC2(CCN(Cc3ccccc3)C2)C1` (centres unmarked) [CBK136872], the viability at 28.5 h, 10 µM amounted to 91.9%.
Still for that read-out and setting: in the case of `O=C(c1ccc2occc2c1)N1CCCC2(CCN(Cc3ccccc3)C2)C1` (centres unmarked) [CBK136882] it was 105%; in that of `COc1ccc2[nH]cc(CC(=O)N3CCCC4(CCN(Cc5ccccc5)C4)C3)c2c1` (centres unmarked) [CBK136883], 93.5%; in that of `O=C(c1cccc2[nH]ccc12)N1CCCC2(CCN(Cc3ccccc3)C2)C1` (centres unmarked) [CBK136887], 93.5%.
On the same count and under the same terms, the figure for `N#Cc1cccc(C(=O)N2CCCC3(CCN(Cc4ccccc4)C3)C2)c1` (centres unmarked) [CBK136893] is 92%.
Still for that read-out and setting: in the case of `CN1CCC[C@H]1C(=O)N1CCCC2(CCN(Cc3ccccc3)C2)C1` (some centres unmarked) [CBK136901] it was 90.7%; in that of `CCOC(=O)C1(C2CCCCC2)CCN(C(=O)CC2CCCCC2)CC1` [CBK136919], 96.2%.
On to `CCOC(=O)C1(C2CCCCC2)CCN(C(=O)c2ccc(OC(F)(F)F)cc2)CC1` [CBK136921], for which the viability at 28.5 h, 10 µM was found to be 96.2%.
Still for that read-out and setting: in the case of `CCOC(=O)C1(C2CCCCC2)CCN(C(=O)/C=C/c2ccc3c(c2)OCO3)CC1` [CBK136924] it was 92.8%; in that of `CCOC(=O)C1(C2CCCCC2)CCN(C(=O)COc2ccccc2OC)CC1` [CBK136928], 96.7%; in that of `CCOC(=O)C1(C2CCCCC2)CCN(C(=O)CC2NC(=O)NC2=O)CC1` (centres unmarked) [CBK136938], 100%.
The same measure, in the same setting: in the case of `CCOC(=O)C1(C2CCCCC2)CCN(C(=O)CCC(=O)O)CC1` [CBK136939] it was 95.9%.
The same measure, in the same setting: in the case of `CS(=O)(=O)N1CC2(CCN(Cc3cccc4cccnc34)CC2)c2ccccc21` [CBK136955] it was 93.2%; in that of `CS(=O)(=O)N1CC2(CCN(Cc3ccc4nsnc4c3)CC2)c2ccccc21` [CBK136957], 92.9%; in that of `CCNC(=O)N1CC2(CCN(CCc3cccc4ccccc34)CC2)c2ccccc21` [CBK136965], 94.7%.
Regarding `CCNC(=O)N1CC2(CCN(CCCC#N)CC2)c2ccccc21` [CBK136970], the viability at 28.5 h, 10 µM was found to be 111%.
On the same count and under the same terms, the figure for `CCNC(=O)N1CC2(CCN(CCOCC)CC2)c2ccccc21` [CBK136972] is 90.5%; for `CC(C)C(=O)N1CC2(CCN(CCc3cccc4ccccc34)CC2)c2ccccc21` [CBK136978] it is 101%.
Still for that read-out and setting: the figure for `CCN1CC2(CCN(Cc3c(F)cccc3F)CC2)c2ccccc21` [CBK136986] is 94%; for `CCN1CC2(CCN(CC3CC3)CC2)c2ccccc21` [CBK136987] it is 92.6%.
Still for that read-out and setting: in the case of `CCN1CC2(CCN(CCCN(C)C)CC2)c2ccccc21` [CBK136988] it was 84.5%.
Regarding `CCN1CC2(CCN(CCCC#N)CC2)c2ccccc21` [CBK136995], the viability at 28.5 h, 10 µM turned out to be 91.1%.
Same read-out and setting: the figure for `NC(=O)CN1CC2(CCN(Cc3cccc4cccnc34)CC2)c2ccccc21` [CBK137021] is 123%; for `O=C(c1cccc(C(F)(F)F)c1)N1CCCC2(CCN(Cc3ccccc3)C2)C1` (centres unmarked) [CBK137039] it is 90.4%.
Take `O=C(c1cc(F)c(F)cc1F)N1CCC2(CCCNC2)C1` (centres unmarked) [CBK137068T]: the viability at 28.5 h, 10 µM turned out to be 87%.
Still for that read-out and setting: in the case of `O=C(Cc1nnn[nH]1)N1CCCC2(CCN(C(=O)c3ccoc3)C2)C1` (centres unmarked) [CBK137077] it was 91.8%.
The same measure, in the same setting: in the case of `COc1ccc(C(=O)N2CCC3(CCCN(C(=O)c4ccc5[nH]c(=O)[nH]c5c4)C3)C2)cc1OC` (centres unmarked) [CBK137086] it was 98.5%; in that of `Cc1ccc(S(=O)(=O)CC(=O)N2CCCC3(CCN(Cc4ccccc4)C3)C2)cc1` (centres unmarked) [CBK137098T], 90.7%; in that of `CCOC(=O)C1(C2CCCCC2)CCN(C(=O)c2cc(C)[nH]n2)CC1` [CBK137100], 96.2%.
Still for that read-out and setting: in the case of `CCOC(=O)C1(C2CCCCC2)CCN(C(=O)c2cscn2)CC1` [CBK137101] it was 82.1%; in that of `CCOC(=O)C1(C2CCCCC2)CCN(C(=O)c2ccc(S(N)(=O)=O)cc2)CC1` [CBK137105], 93.2%.
Take `O=c1[nH]c2ccccc2n1CCCN1CCC[C@@H]1CN1CCCC1` [CBK137111T]: the viability at 28.5 h, 10 µM was determined as 93.5%.
Same read-out and setting: in the case of `O=C(O)CCN1CCCC2(CCN(C(=O)Cc3c[nH]c4ccccc34)C2)C1` (centres unmarked) [CBK137138] it was 114%; in that of `COc1ccc(C(=O)N2CCC3(CCCN(CCc4c[nH]c5ccccc45)C3)C2)cc1OC` (centres unmarked) [CBK137143], 89.9%; in that of `O=C(c1ccc2[nH]ccc2c1)N1CCC2(CCN(Cc3ccccc3)C2)C1` (centres unmarked) [CBK137146], 98.5%.
The same measure, in the same setting: in the case of `O=C(Cc1ccsc1)N1CCC2(CCCNC2)C1` (centres unmarked) [CBK137153C] it was 85.4%.
On the same count and under the same terms, the figure for `O=C(CC1CCCCC1)N1CCC2(CCCNC2)C1` (centres unmarked) [CBK137154C] is 91.5%; for `O=C(c1ccc(OC(F)(F)F)cc1)N1CCC2(CCCNC2)C1` (centres unmarked) [CBK137156C] it is 87.7%; for `Nc1nccn(CCOc2cc(F)c(F)cc2F)c1=O` [CBK138204T] it is 92.6%.
For the compound `CC(=O)Nc1ccc(-c2ccc(COC3CCN(C(=O)OC(C)(C)C)CC3)cc2)cc1` [CBK138215], the viability at 28.5 h, 10 µM amounted to 99.8%.

The same data set, now with this note: human, hela cells, % viability, bulk resorufin, single well.
As to `CCOC(=O)C1(c2ccccc2)CCN(C(=O)CC(C)(C)N)CC1` [CBK137117], the viability at 28.5 h, 10 µM was found to be 96.6%.
